In patent publication US20230295236A1, “COMPOUNDS FOR USE IN INFLAMMATORY CONDITIONS” (priority 2020, published 2023):
Where two headings read alike, the source gives them in different places.

Experiments:
NF-κB = NF-κB transactivation luciferase assay in THP-1 NF-κB-Luc cells; assay type: cell-based, human; settings: 100 nM plitidepsin, 6 hours; with poly I:C, LPS-B5 or Resiquimod (TLR ligands)
Protocol: Luminescence was measured in a Perkin-Elmer EnVision reader.

SARS-CoV-2 [1] = test: SARS-CoV-2 cytopathic effect in Vero E6 cells (CellTiter-Glo); assay type: cell-based; settings: Severe acute respiratory syndrome coronavirus 2, Vero C1008, 72 h, 3 days post infection, two experiments with two replicates each, read-out: IC50 viral-induced cytopathic effect (mean and standard deviation)
Protocol: Vero E6 cells (ATCC CRL-1586) were cultured in Dulbecco’s modified Eagle medium, (DMEM; Lonza) supplemented with 5% fetal calf serum (FCS; EuroClone), 100 U/mL penicillin, 100 µg/mL streptomycin, and 2 mM glutamine (all ThermoFisher Scientific).
Plitidepsin was used at a concentration ranging from 100 µM to 0.0512 nM at ⅕ serial dilutions, and also assayed from 10 µM to 0.5 nM at ⅓ dilutions.
Increasing concentrations of Plitidepsin was added to Vero E6 cells together with 10^1.8 TCID50/mL of SARS-CoV-2, a concentration that achieves a 50% of cytopathic effect. Non-exposed cells were used as negative controls of infection. In order to detect any drug-associated cytotoxic effect, Vero E6 cells were equally cultured in the presence of increasing drug concentrations, but in the absence of virus. Cytopathic or cytotoxic effects of the virus or drugs were measured at 3 days post infection, using the CellTiter-Glo luminescent cell viability assay (Promega). Luminescence was measured in a Fluoroskan Ascent FL luminometer (ThermoFisher Scientific).
Response curves were adjusted to a non-linear fit regression model, calculated with a four-parameter logistic curve with variable slope. […] Statistical differences from 100% were assessed with a one sample t test. […]

SARS-CoV-2 [2] = test: APLICOV-PC clinical study in patients hospitalised for COVID-19: efficacy; assay type: in vivo, human
[3] = Stability of plitidepsin drug product and reconstituted solution; assay type: physicochemical
Protocol: Plitidepsin will be labelled with the study protocol code, the batch number, the content, the expiry date, the storage conditions, the name of the investigator and the sponsor. The study drug will be labelled in accordance with Annex 13 of the European Good Manufacturing Practices. Plitidepsin should be stored between 2° C. and 8° C. and the vials should be kept in the outer carton to protect them from light. The drug in these conditions is stable for 60 months.
After reconstitution of the 2 mg plitidepsin vial with 4 ml of the solution for reconstitution of macrogolglycerol ricinoleate/ethanol/water for injection, the reconstituted solution should be diluted and used immediately after preparation. If not used immediately, storage times and conditions until use are the responsibility of the user. […] If storage is required before administration, solutions should be stored refrigerated and protected from light and should be used within 24 hours after reconstitution.

[4] = Pharmacokinetics in patients; assay type: in vivo; settings: both sexes, plasma, Human (M/F), 0.135 mg/kg (Recommended Dose 5 mg/m2), 3-h intravenous infusion
[5] = test system: WNV-GFP (lineage 2; molecular clone WN956)
SARS-CoV-2 [6] = test: SARS-CoV-2 replication in human stem cell-derived pneumocyte like cells; assay type: cell-based; settings: 10 nm plitidepsin for 1 hour before infection; 48 hour incubation
Protocol: Several in vitro experiments aimed at determining the effect of plitidepsin on SARS-CoV-2 were carried out and are disclosed herein. […] In another study, human stem cell-derived pneumocyte like cells were prophylactically exposed to 10 nm plitidepsin for 1 hour and then infected with SARS-CoV-2 (4 × 10^4 plaque forming units). After a 48 hour incubation period, both antiviral and cytotoxic plitidepsin effects were determined.

SARS-CoV-2 [7] = test: SARS-CoV-2 dose-response curve analysis by immunofluorescence in Vero cells
[8] = molecular target: eEF1A purified from rabbit muscle (Oryctolagus cuniculus, UniProt Q71V39); test: Binding of 14C-plitidepsin to purified eEF1A
[9] = Cell biomass (DAPI) in Vero-E6 cells; assay type: cell-based, African green monkey; settings: African green monkey, Vero-E6 cells, VeroE6 cells, read-out: CC50 based on cell biomass
Protocol: (§1) Relative infection efficiency was assessed by automated fluorescence microscopy in the green channel and overall cell biomass/well was estimated by nuclear staining with DAPI in the blue channel, as a preliminary assessment of the compound effective doses as well as overall compound cytotoxicity.
(§2) Cells were fixed by addition of a 5X formaldehyde solution to achieve a 4% final concentration for 30 mins at room temperature. Cells were washed with PBS and stained with DAPI (4′,6-diamidino-2-phenylindole) following manufacturer’s recommendations. Relative infection efficiency was estimated by image analysis in an automated microscopy device (Tecan Spark Cyto). Uninfected cells and vehicle-treated controls were included in each plate.

Vero-E6 cells = test: Cell biomass (DAPI) in Vero-E6 cells; assay type: cell-based, African green monkey; settings: VeroE6 cells, 48 hours
Protocol: as §1, §2

WNV-NY99 (lineage 1) [10] = assay type: cell-based, West Nile virus; settings: for Intracellular WNV RNA load (RT-qPCR): Vero-E6 cells
alveolar macrophages = test: LPS animal inflammation model: macrophages in bronchoalveolar lavage by flow cytometry; assay type: in vivo, mouse; settings: mice 1 mg/kg single i.v., LPS 20 µg/kg i.p.
Excerpt: Three hours later, bronchoalveolar lavages were collected.

WNV-NY99 (lineage 1) [11] = settings: Huh-7 cells

eEF1A purified from rabbit muscle, sequence (Q71V39 whole entry): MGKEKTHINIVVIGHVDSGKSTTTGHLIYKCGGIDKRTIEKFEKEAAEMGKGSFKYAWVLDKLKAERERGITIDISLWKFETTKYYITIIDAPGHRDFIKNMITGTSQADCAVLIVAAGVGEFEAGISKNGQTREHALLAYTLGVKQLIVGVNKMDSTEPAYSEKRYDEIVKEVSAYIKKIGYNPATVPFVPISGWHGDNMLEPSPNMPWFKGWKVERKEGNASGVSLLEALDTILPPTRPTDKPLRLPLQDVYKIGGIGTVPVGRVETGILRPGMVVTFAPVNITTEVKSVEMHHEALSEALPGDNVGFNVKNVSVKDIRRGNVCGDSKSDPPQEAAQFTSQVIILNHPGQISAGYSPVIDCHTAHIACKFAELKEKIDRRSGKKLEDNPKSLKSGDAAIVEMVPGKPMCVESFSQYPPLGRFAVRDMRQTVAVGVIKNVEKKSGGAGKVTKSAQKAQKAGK

Question: Which “NF-κB transactivation (luciferase activity)” value (NF-κB) does the source give for `CC[C@H](C)[C@H]1NC(=O)[C@@H](NC(=O)[C@@H](CC(C)C)N(C)C(=O)[C@@H]2CCCN2C(=O)C(C)=O)[C@@H](C)OC(=O)[C@H](Cc2ccc(OC)cc2)N(C)C(=O)[C@@H]2CCCN2C(=O)[C@H](CC(C)C)NC(=O)[C@@H](C)C(=O)[C@H](C(C)C)OC(=O)C[C@@H]1O` [plitidepsin] here?
Answer: Its value is “clearly inhibited the production of luciferase”.

Question: What about the IC50 (SARS-CoV-2 [1]) of the same compound?
Answer: The IC50 was 0.06 ± 0.02 µM.

Question: What about the “Mean time from baseline until undetectable viral load” value (SARS-CoV-2 [2]) of the same compound?
Answer: The value was 11 days.

Question: What about the “Mortality from Day 1 to Day 7” value (SARS-CoV-2 [2]) of the same compound?
Answer: Its value is 0 n (%).

Question: What about the “Mortality from Day 1 to Day 15” value (SARS-CoV-2 [2]) of the same compound?
Answer: Its value is 0 n (%).

Question: And the “Mortality from Day 1 to Day 31” value (SARS-CoV-2 [2])?
Answer: The value was 2 (4.5) n (%).

Question: What about the “Patients requiring ICU admission from Day 1 to Day 7” value (SARS-CoV-2 [2]) of the same compound?
Answer: Its value is 5 (11.4) n (%).

Question: What about the “Patients requiring ICU admission from Day 1 to Day 15” value (SARS-CoV-2 [2]) of the same compound?
Answer: The value was 6 (13.6) n (%).

Question: What about the “Patients requiring ICU admission from Day 1 to Day 31” value (SARS-CoV-2 [2]) of the same compound?
Answer: Its value is 6 (13.6) n (%).

Question: What about the “Patients requiring invasive mechanical ventilation and/or ICU admission from Day 1 to Day 7” value (SARS-CoV-2 [2]) of the same compound?
Answer: The value was 5 (11.4) n (%).

Question: And the “Patients requiring invasive mechanical ventilation and/or ICU admission from Day 1 to Day 15” value (SARS-CoV-2 [2])?
Answer: Its value is 6 (13.6) n (%).

Question: What about the “Patients requiring invasive mechanical ventilation and/or ICU admission from Day 1 to Day 31” value (SARS-CoV-2 [2]) of the same compound?
Answer: The value was 6 (13.6) n (%).

Question: And the “Patients requiring noninvasive mechanical ventilation from Day 1 to Day 7” value (SARS-CoV-2 [2])?
Answer: Its value is 4(9.1) n (%).

Question: What about the “Patients requiring noninvasive mechanical ventilation from Day 1 to Day 15” value (SARS-CoV-2 [2]) of the same compound?
Answer: The value was 5 (11.4) n (%).

Question: And the “Patients requiring noninvasive mechanical ventilation from Day 1 to Day 31” value (SARS-CoV-2 [2])?
Answer: Its value is 6 (13.6) n (%).

Question: And the “Mean change in viral load from baseline to Day 4” value (SARS-CoV-2 [2]; 96 h)?
Answer: Its value is -1.90 log10 copies/mL.

Question: And the “Mean change in viral load from baseline to Day 7” value (SARS-CoV-2 [2]; 168 h)?
Answer: The value was -3.07 log10 copies/mL.

Question: What about the “Mean reduction in viral load” value (SARS-CoV-2 [2]; 168 h) of the same compound?
Answer: Its value is -3.1 log10 copies/mL.

Question: And the “Patients requiring oxygen therapy at Day 7” value (SARS-CoV-2 [2]; 168 h)?
Answer: The value was 31 (70.5) n (%).

Question: And the “Patients discharged from hospital by Day 8” value (SARS-CoV-2 [2]; 192 h)?
Answer: Its value is 25 (56.8) n (%).

Question: What about the “Mean change in viral load from baseline to Day 15” value (SARS-CoV-2 [2]; 360 h) of the same compound?
Answer: The value was -4.48 log10 copies/mL.

Question: And the “Mean reduction in viral load” value (SARS-CoV-2 [2]; 360 h)?
Answer: The value was -4.5 log10 copies/mL.

Question: And the “Patients discharged from hospital by Day 15” value (SARS-CoV-2 [2]; 360 h)?
Answer: Its value is 36 (81.8) n (%).

Question: And the “Patients requiring oxygen therapy at Day 15” value (SARS-CoV-2 [2]; 360 h)?
Answer: The value was 9 (20.5) n (%).

Question: What about the “Reduction in viral load” value (SARS-CoV-2 [2]; 360 h) of the same compound?
Answer: The value was -3.0 log.

Question: What about the “Mean change in viral load from baseline to Day 31” value (SARS-CoV-2 [2]; 744 h) of the same compound?
Answer: The value was -5.27 log10 copies/mL.

Question: And the “Patients discharged from hospital by Day 31” value (SARS-CoV-2 [2]; 744 h)?
Answer: Its value is 40 (90.9) n (%).

Question: And the “Patients requiring oxygen therapy at Day 31” value (SARS-CoV-2 [2]; 744 h)?
Answer: Its value is 3 (6.8) n (%).

Question: What about the “Physical, chemical and microbiological stability of reconstituted concentrated solution” value ([3]; original vial under indoor light at room temperature) of the same compound?
Answer: Its value is 6 hours.

Question: And the “Physical, chemical and microbiological stability of reconstituted concentrated solution” value ([3]; refrigerated conditions (5° C.±3° C.))?
Answer: The value was 24 hours.

Question: What about the “Stability of the drug (vials)” value ([3]; stored between 2° C. and 8° C., protected from light) of the same compound?
Answer: The value was 60 months.

Question: What about the AUC(0-inf) [4] of the same compound?
Answer: Its AUC(0-inf) is 0.256 µg·h/mL.

Question: And the Cmax [4]?
Answer: The Cmax was 0.0291 µg/mL.

Question: What about the clearance [4] of the same compound?
Answer: Its clearance is 0.7 to 0.9 L/h/kg.

Question: What about the Vd ([4]; read-out: Vdss) of the same compound?
Answer: Its Vd is 29 to 33 L/kg.

Question: What about the half-life ([4]; read-out: t½) of the same compound?
Answer: Its half-life is 20 to 80 h.

Question: What about the “Concentration with antiviral activity in the absence of measurable interference with cell viability (p<0.05)” value ([5]; Vero-E6 cells) of the same compound?
Answer: Its value is 7.2 nM.

Question: And the “Therapeutic index (CC50/EC50)” value ([5]; VeroE6 cells)?
Answer: The value was 475.

Question: And the “Concentration reaching background fluorescence levels” value ([5]; VeroE6 cells, 48 hours)?
Answer: The value was at least 36 nM.

Question: What about the SARS-CoV-2 replication (SARS-CoV-2 [6]) of the same compound?
Answer: The SARS-CoV-2 replication was “completely eliminated replication of SARS-CoV-2”.

Question: What about the SI (SARS-CoV-2 [7]) of the same compound?
Answer: Its SI is 49.95-129.92.

Question: What about the IC50 (SARS-CoV-2 [7]; read-out: IC50 inhibition of virus infection, Vero cells, MOI 0.0125, 24 hpi, three repeats) of the same compound?
Answer: The IC50 was 0.0033 to 0.0039 µM.

Question: What about the “Binding affinity to eEF1A” value [8] of the same compound?
Answer: The value was “high affinity”.

Question: And the “Rate of dissociation from eEF1A” value [8]?
Answer: Its value is “low rate of dissociation”.

Question: What about the CC50 at 48 h [9] of the same compound?
Answer: The CC50 at 48 h was 2.33 µM.

Question: And the “Concentration up to which cell number remained unchanged” value (Vero-E6 cells)?
Answer: Its value is “up to 36 nM”.

Question: What about the “Reduction of extracellular infectivity titers” value (WNV-NY99 (lineage 1) [10]; 45 nM, VeroE6 cells, 48 hours) of the same compound?
Answer: The value was > 3 orders of magnitude.

Question: And the “Intracellular WNV RNA load (RT-qPCR)” value (WNV-NY99 (lineage 1) [10]; 5 and 1.5 nM)?
Answer: The value was “not distinguishable from those in the control”.

Question: And the “Intracellular WNV RNA load (RT-qPCR)” value (WNV-NY99 (lineage 1) [10]; 15 and 45 nM)?
Answer: Its value is “significantly decreased in a dose-dependent manner”.

Question: What about the “Macrophages in bronchoalveolar lavage” value (alveolar macrophages) of the same compound?
Answer: Its value is “decrease the percentage of macrophages presents on bronchoalveolar lavage without cytotoxic effects”.

Question: What about the “Intracellular WNV RNA load (RT-qPCR)” value (WNV-NY99 (lineage 1) [11]; 15 nM) of the same compound?
Answer: Its value is “marked reduction in viral load”.

Question: And the “Total cellular RNA recovery” value (WNV-NY99 (lineage 1) [11]; 45 nM)?
Answer: The value was “no RNA could be recovered”.

Question: And the “Reduction of extracellular infectivity titers” value (WNV-NY99 (lineage 1) [11]; 45 nM, 48 hours)?
Answer: Its value is > 3 orders of magnitude.
